Data reported in PubChem BioAssay (NCI).
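The compound was tested at five concentrations on cells cultured in 96-well plates, with a 48-hour exposure period. TGI is the concentration that stops growth completely.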

Columns and labels:
Experiment in all cases: NCI anticancer screen, dose series, 48 h
OVCAR-8 ovarian = system: OVCAR-8 ovarian
COLO 205 colon = system: COLO 205 colon
SF-539 CNS = system: SF-539 CNS
HT29 colon = system: HT29 colon
TK-10 renal = system: TK-10 renal
SK-MEL-28 melanoma = system: SK-MEL-28 melanoma
HCT-15 colon = system: HCT-15 colon
OVCAR-5 ovarian = system: OVCAR-5 ovarian
CCRF-CEM leukemia = system: CCRF-CEM leukemia
UO-31 renal = system: UO-31 renal
MCF7 breast = system: MCF7 breast
HOP-62 NSCLC = system: HOP-62 NSCLC
MDA-MB-435 = system: MDA-MB-435
RXF 393 renal = system: RXF 393 renal
CAKI-1 renal = system: CAKI-1 renal
UACC-62 melanoma = system: UACC-62 melanoma
HCC-2998 colon = system: HCC-2998 colon
OVCAR-3 ovarian = system: OVCAR-3 ovarian
SK-MEL-2 melanoma = system: SK-MEL-2 melanoma
MALME-3M melanoma = system: MALME-3M melanoma
U251 CNS = system: U251 CNS
T-47D breast = system: T-47D breast
K-562 leukemia = system: K-562 leukemia
RPMI-8226 leukemia = system: RPMI-8226 leukemia
DU-145 prostate = system: DU-145 prostate
SW-620 colon = system: SW-620 colon
NCI/ADR-RES ovarian = system: NCI/ADR-RES ovarian
SF-268 CNS = system: SF-268 CNS
MDA-MB-231 breast = system: MDA-MB-231 breast
M14 melanoma = system: M14 melanoma
SN12C renal = system: SN12C renal
SNB-19 CNS = system: SNB-19 CNS
SK-OV-3 ovarian = system: SK-OV-3 ovarian
HS 578T breast = system: HS 578T breast
MDA-N = system: MDA-N
SF-295 CNS = system: SF-295 CNS
786-0 renal = system: 786-0 renal
ACHN renal = system: ACHN renal
PC-3 prostate = system: PC-3 prostate
UACC-257 melanoma = system: UACC-257 melanoma
A549 NSCLC = system: A549 NSCLC
LOX IMVI melanoma = system: LOX IMVI melanoma
SNB-75 CNS = system: SNB-75 CNS
EKVX NSCLC = system: EKVX NSCLC
IGROV1 ovarian = system: IGROV1 ovarian
NCI-H460 lung = system: NCI-H460 lung
HCT-116 colon = system: HCT-116 colon
HL-60(TB) leukemia = system: HL-60(TB) leukemia
NCI-H23 lung = system: NCI-H23 lung
HOP-92 NSCLC = system: HOP-92 NSCLC
SK-MEL-5 melanoma = system: SK-MEL-5 melanoma
SR leukemia = system: SR leukemia
OVCAR-4 ovarian = system: OVCAR-4 ovarian
KM12 colon = system: KM12 colon
MOLT-4 leukemia = system: MOLT-4 leukemia
A498 renal = system: A498 renal
NCI-H226 lung = system: NCI-H226 lung
BT-549 breast = system: BT-549 breast
NCI-H522 lung = system: NCI-H522 lung

## CCOP(=O)(OCC)C(NC(=O)C(C(F)(F)F)C(F)(F)F)c1ccccc1 (stereo not drawn)
OVCAR-8 ovarian
  TGI: > 100 µM
COLO 205 colon
  TGI: > 100 µM
SF-539 CNS
  TGI: > 100 µM
HT29 colon
  TGI: > 100 µM
TK-10 renal
  TGI: > 100 µM
SK-MEL-28 melanoma
  TGI: > 100 µM
HCT-15 colon
  TGI: > 100 µM
OVCAR-5 ovarian
  TGI: > 100 µM
CCRF-CEM leukemia
  TGI: > 100 µM
UO-31 renal
  TGI: > 100 µM
MCF7 breast
  TGI: > 100 µM
HOP-62 NSCLC
  TGI: > 100 µM
MDA-MB-435
  TGI: > 100 µM
RXF 393 renal
  TGI: > 100 µM
CAKI-1 renal
  TGI: > 100 µM
UACC-62 melanoma
  TGI: > 100 µM
HCC-2998 colon
  TGI: > 100 µM
OVCAR-3 ovarian
  TGI: > 100 µM
SK-MEL-2 melanoma
  TGI: > 100 µM
MALME-3M melanoma
  TGI: > 100 µM
U251 CNS
  TGI: > 100 µM
T-47D breast
  TGI: > 100 µM
K-562 leukemia
  TGI: > 100 µM
RPMI-8226 leukemia
  TGI: 67 µM
DU-145 prostate
  TGI: > 100 µM
SW-620 colon
  TGI: > 100 µM
NCI/ADR-RES ovarian
  TGI: > 100 µM
SF-268 CNS
  TGI: > 100 µM
MDA-MB-231 breast
  TGI: > 100 µM
M14 melanoma
  TGI: > 100 µM
SN12C renal
  TGI: > 100 µM
SNB-19 CNS
  TGI: > 100 µM
SK-OV-3 ovarian
  TGI: > 100 µM
HS 578T breast
  TGI: > 100 µM
MDA-N
  TGI: > 100 µM
SF-295 CNS
  TGI: > 100 µM
786-0 renal
  TGI: > 100 µM
ACHN renal
  TGI: > 100 µM
PC-3 prostate
  TGI: > 100 µM
UACC-257 melanoma
  TGI: > 100 µM
A549 NSCLC
  TGI: > 100 µM
LOX IMVI melanoma
  TGI: > 100 µM
SNB-75 CNS
  TGI: > 100 µM
EKVX NSCLC
  TGI: > 100 µM
IGROV1 ovarian
  TGI: > 100 µM
NCI-H460 lung
  TGI: > 100 µM
HCT-116 colon
  TGI: > 100 µM
HL-60(TB) leukemia
  TGI: 67.9 µM
NCI-H23 lung
  TGI: > 100 µM
HOP-92 NSCLC
  TGI: > 100 µM
SK-MEL-5 melanoma
  TGI: > 100 µM
SR leukemia
  TGI: > 100 µM
OVCAR-4 ovarian
  TGI: > 100 µM
KM12 colon
  TGI: > 100 µM
MOLT-4 leukemia
  TGI: > 100 µM

## CCCc1cc(COC)c(C#N)c(=O)[nH]1
OVCAR-8 ovarian
  TGI: > 100 µM
COLO 205 colon
  TGI: > 100 µM
SF-539 CNS
  TGI: > 100 µM
HT29 colon
  TGI: > 100 µM
TK-10 renal
  TGI: > 100 µM
SK-MEL-28 melanoma
  TGI: > 100 µM
HCT-15 colon
  TGI: > 100 µM
OVCAR-5 ovarian
  TGI: > 100 µM
CCRF-CEM leukemia
  TGI: > 100 µM
UO-31 renal
  TGI: > 100 µM
MCF7 breast
  TGI: > 100 µM
HOP-62 NSCLC
  TGI: > 100 µM
MDA-MB-435
  TGI: > 100 µM
RXF 393 renal
  TGI: > 100 µM
CAKI-1 renal
  TGI: > 100 µM
A498 renal
  TGI: > 100 µM
UACC-62 melanoma
  TGI: > 100 µM
HCC-2998 colon
  TGI: > 100 µM
OVCAR-3 ovarian
  TGI: > 100 µM
NCI-H226 lung
  TGI: > 100 µM
BT-549 breast
  TGI: > 100 µM
MALME-3M melanoma
  TGI: > 100 µM
U251 CNS
  TGI: > 100 µM
T-47D breast
  TGI: > 100 µM
K-562 leukemia
  TGI: > 100 µM
RPMI-8226 leukemia
  TGI: > 100 µM
DU-145 prostate
  TGI: > 100 µM
SW-620 colon
  TGI: > 100 µM
NCI/ADR-RES ovarian
  TGI: > 100 µM
SF-268 CNS
  TGI: > 100 µM
MDA-MB-231 breast
  TGI: > 100 µM
NCI-H522 lung
  TGI: > 100 µM
M14 melanoma
  TGI: > 100 µM
SN12C renal
  TGI: > 100 µM
SNB-19 CNS
  TGI: > 100 µM
SK-OV-3 ovarian
  TGI: > 100 µM
HS 578T breast
  TGI: > 100 µM
MDA-N
  TGI: > 100 µM
SF-295 CNS
  TGI: > 100 µM
786-0 renal
  TGI: > 100 µM
ACHN renal
  TGI: > 100 µM
PC-3 prostate
  TGI: > 100 µM
UACC-257 melanoma
  TGI: > 100 µM
A549 NSCLC
  TGI: > 100 µM
LOX IMVI melanoma
  TGI: > 100 µM
EKVX NSCLC
  TGI: > 100 µM
IGROV1 ovarian
  TGI: > 100 µM
NCI-H460 lung
  TGI: > 100 µM
HCT-116 colon
  TGI: > 100 µM
HL-60(TB) leukemia
  TGI: > 100 µM
NCI-H23 lung
  TGI: > 100 µM
SK-MEL-5 melanoma
  TGI: > 100 µM
OVCAR-4 ovarian
  TGI: > 100 µM
KM12 colon
  TGI: > 100 µM
MOLT-4 leukemia
  TGI: > 100 µM

## COC(C)(C)/C=C/c1[nH]c2ccccc2c1CC(=O)NCCc1cn(C(c2ccccc2)(c2ccccc2)c2ccccc2)cn1
OVCAR-8 ovarian
  TGI: > 100 µM
COLO 205 colon
  TGI: 3.85 µM
SF-539 CNS
  TGI: 14.1 µM
HT29 colon
  TGI: > 21.5 µM
TK-10 renal
  TGI: > 40.5 µM
SK-MEL-28 melanoma
  TGI: 29.8 µM
HCT-15 colon
  TGI: > 100 µM
OVCAR-5 ovarian
  TGI: > 30.5 µM
CCRF-CEM leukemia
  TGI: > 100 µM
UO-31 renal
  TGI: 61.8 µM
MCF7 breast
  TGI: 15.5 µM
HOP-62 NSCLC
  TGI: 34.4 µM
MDA-MB-435
  TGI: 22.3 µM
RXF 393 renal
  TGI: > 100 µM
CAKI-1 renal
  TGI: > 100 µM
A498 renal
  TGI: 12.9 µM
UACC-62 melanoma
  TGI: 21.3 µM
HCC-2998 colon
  TGI: 2.95 µM
OVCAR-3 ovarian
  TGI: > 29.2 µM
SK-MEL-2 melanoma
  TGI: 6.45 µM
NCI-H226 lung
  TGI: 10.9 µM
BT-549 breast
  TGI: > 75.7 µM
MALME-3M melanoma
  TGI: 11.7 µM
U251 CNS
  TGI: 16.5 µM
T-47D breast
  TGI: > 21.9 µM
K-562 leukemia
  TGI: > 36 µM
RPMI-8226 leukemia
  TGI: 6.77 µM
DU-145 prostate
  TGI: > 89.3 µM
SW-620 colon
  TGI: > 100 µM
NCI/ADR-RES ovarian
  TGI: > 100 µM
SF-268 CNS
  TGI: > 100 µM
MDA-MB-231 breast
  TGI: 15 µM
NCI-H522 lung
  TGI: 14.3 µM
M14 melanoma
  TGI: 17.3 µM
SN12C renal
  TGI: 19.2 µM
SNB-19 CNS
  TGI: > 100 µM
SK-OV-3 ovarian
  TGI: > 34.9 µM
HS 578T breast
  TGI: 60.2 µM
MDA-N
  TGI: 19.9 µM
SF-295 CNS
  TGI: > 31.3 µM
786-0 renal
  TGI: 17.1 µM
ACHN renal
  TGI: > 100 µM
PC-3 prostate
  TGI: 10.6 µM
UACC-257 melanoma
  TGI: 24.9 µM
A549 NSCLC
  TGI: > 100 µM
LOX IMVI melanoma
  TGI: > 51.3 µM
EKVX NSCLC
  TGI: > 100 µM
IGROV1 ovarian
  TGI: > 100 µM
NCI-H460 lung
  TGI: > 23.5 µM
HCT-116 colon
  TGI: 14.8 µM
HL-60(TB) leukemia
  TGI: 8.88 µM
NCI-H23 lung
  TGI: 22.9 µM
HOP-92 NSCLC
  TGI: > 28.3 µM
SK-MEL-5 melanoma
  TGI: 7.36 µM
SR leukemia
  TGI: 5.8 µM
OVCAR-4 ovarian
  TGI: > 100 µM
KM12 colon
  TGI: > 87.3 µM
MOLT-4 leukemia
  TGI: 6.21 µM
